We go through 56 molecules from patent US20260103471A1, “CYCLIC UREA THIAZOLYL COMPOUNDS FOR TREATMENT OF HSV” (Assembly Biosciences, Inc., priority 2022, published 2026).

The test system of the first test is HSV-2 G strain. Nature of the test: HSV-2 Antiviral Assay (Vero cells, cell viability). The note with it: Human alphaherpesvirus 2, Vero, 120 h, Vero cells, 160 TCID50 HSV-2 G strain, 5 days, cell viability. The format is cell-based. As for the experimental part:
Vero cells were cultured in Dulbecco's Modified Eagle Medium (DMVEM) supplemented with […] and 100 units/mL penicillin and streptomycin. The cells were passaged 2-3 times per week to maintain sub-confluent densities.
Vero cells were seeded into 96-well plates at a density of 1.0×10^4 cells per well and allowed to attach overnight. Following attachment, the media was replaced with 50 μL of infection medium (DMEM supplemented with 2% fetal bovine serum and 100 units/mL penicillin and streptomycin). A Tecan D300e digital dispenser was then used to add compounds to the culture using an 8-point 3-fold serial dilution format. The DMSO concentration was normalized to 0.5% for all treatments. Following compound addition, 50 μL of infection medium containing 160 TCID50 HSV-2 G strain was added to the cells and incubated at 37° C. for 5 days. After the incubation, 10 μL/well of WST-8 chromogenic reagent was added and the plates incubated at 37° C. for 3 hours. Following the incubation, cell viability was quantified by measuring the absorbance at 460 nm and 620 nm using a Tecan Infinite M1000 Pro plate reader.
On to `COc1ccc(-c2ccc(N3CCCN(c4nc(C)c(S(N)(=O)=O)s4)C3=O)cc2)c2ccn(C)c12` [Compound 296], for which the EC50 (commonly the concentration that produces a half-maximal response) was in the range of 100 to 1000 nM. Still for that read-out and setting: next, `Cc1nc(N2CCCN(c3ccc(-c4cc(C(F)(F)F)cc5c4c(CO)cn5C)cc3)C2=O)sc1S(N)(=O)=O` [Compound 292]: 1000 to 5000 nM; `Cc1nc(N2CCCN(c3ccc(-c4cccc5c(C)cnn45)cc3)C2=O)sc1S(N)(=O)=O` [Compound 247]: below 100 nM. Still for that read-out and setting: next, `Cc1nc(N2CC(O)CN(c3ccc(-c4cc(F)ccc4F)cc3)C2=O)sc1S(N)(=O)=O` (centres unmarked) [Compound 353, 2-(3-(2′,5′-difluoro-[1,1′-biphenyl]-4-yl)-5-hydroxy-2-oxotetrahydropyrimidin-1(2H)-yl)-4-methylthiazole-5-sulfonamide]: below 100 nM; `Cc1nc(N2CCCN(c3ccc(-c4cc(F)ccc4C(C)(F)F)cc3)C2=O)sc1S(N)(=O)=O` [Compound 225]: below 100 nM; `Cc1nc(N2CCCN(c3ccc(-c4scnc4C#N)cc3)C2=O)sc1S(N)(=O)=O` [Compound 47]: 100 to 1000 nM. On the same count and under the same terms, next, `CN=[S@@](C)(=O)c1sc(N2CCCN(c3ccc(-c4cc(F)ccc4F)cc3)C2=O)nc1C` (single isomer, unassigned) [Compound 152]: 1000 to 5000 nM; `Cc1nc(N2C(=O)N(c3ccc(-c4cc(F)ccc4F)cc3)CCC2C)sc1S(N)(=O)=O` (centres unmarked) [Compound 107, 2-(3-(2′,5′-Difluoro-[1,1′-biphenyl]-4-yl)-6-methyl-2-oxotetrahydropyrimidin-1(2H)-yl)-4-methylthiazole-5-sulfonamide]: below 100 nM; `NS(=O)(=O)c1sc(N2CCCN(c3ccc(-c4cc(F)cc5nsnc45)cc3)C2=O)nc1C(F)(F)F` [Compound 438]: 1000 to 5000 nM.

The molecule `Cc1nc(N2CCCN(c3ccc(-c4cc(F)ccc4SC(F)(F)F)cc3)C2=O)sc1S(N)(=O)=O` [Compound 219] came in with an EC50 of 100 to 1000 nM.

As for `Cc1nc(N2C(=O)N(c3ccc(-c4cc(F)ccc4F)cc3)CC[C@H]2C)sc1S(N)(=O)=O` (single isomer, unassigned) [Compound 108], the EC50 was below 100 nM.

On to `Cc1nc(N2CCCN(c3ccc(-c4cccc(C5CCC5)c4)cc3)C2=O)sc1S(N)(=O)=O` [Compound 199], for which the EC50 is 100 to 1000 nM. The molecule `Cc1nc(N2CC3(CC3)CN(c3ccc(-c4ncccc4F)cc3)C2=O)sc1S(N)(=O)=O` [Compound 112] had an EC50 below 100 nM.

For the molecule `Cc1nc(N2CCCN(c3ccc(-c4cc(C(F)(F)F)cc5c4c(C#N)cn5C)cc3)C2=O)sc1S(N)(=O)=O` [Compound 290], the EC50 was 1000 to 5000 nM.

Consider `COc1ccncc1-c1ccc(N2CCCN(c3nc(C)c(S(N)(=O)=O)s3)C2=O)cc1` [Compound 233], for which the EC50 was 100 to 1000 nM. Same read-out and setting: next, `Cc1nc(N2CCCN(c3ccc(-c4ncccc4C(F)(F)F)cc3)C2=O)sc1S(N)(=O)=O` [Compound 232]: 100 to 1000 nM. Still for that read-out and setting: next, `Cc1nc(N2CCCN(c3ccc(-c4ccccc4C4COC4)cc3)C2=O)sc1S(N)(=O)=O` [Compound 197]: 1000 to 5000 nM; `Cc1csc(-c2ccc(N3CC4(CC4)CN(c4nc(C)c(S(N)(=O)=O)s4)C3=O)cc2)n1` [Compound 114]: below 100 nM. Still for that read-out and setting: then `Cc1nc(N2CCCN(c3ccc(-c4ccccc4C4(C#N)CC4)cc3)C2=O)sc1S(N)(=O)=O` [Compound 23], with 1000 to 5000 nM; and `Cc1nc(N2CCCN(c3ccc(-c4cc(F)ccc4F)cc3)C2=O)sc1S(=O)(=O)NCCO` [Compound 388, 2-(3-(2′,5′-difluoro-[1,1′-biphenyl]-4-yl)-2-oxotetrahydropyrimidin-1(2H)-yl)-N-(2-hydroxyethyl)-4-methylthiazole-5-sulfonamide], with below 100 nM; and `Cc1nc(N2C[C@H](C)CN(c3ccc(-c4cc(F)ccc4F)cc3)C2=O)sc1S(N)(=O)=O` (single isomer, unassigned) [Compound 319], with below 100 nM.

As for `Cc1nc(N2CCCN(c3ccc(-c4cc(F)cc5cc(C(C)(C)F)sc45)cc3)C2=O)sc1S(N)(=O)=O` [Compound 284], the EC50 lay within 100 to 1000 nM.

Turning to `Cc1nc(N2CCCN(c3ccc(-c4cc(F)c(F)c(F)c4)cc3)C2=O)sc1S(N)(=O)=O` [Compound 188], the concentration for a half-maximal effect (EC50) lay in the range of 100 to 1000 nM.

`Cc1ncsc1-c1ccc(N2CCCN(c3nc(C)c(S(N)(=O)=O)s3)C2=O)cc1` [Compound 50] had an EC50 of 100 to 1000 nM. The same measure, in the same setting: then `Cc1nc(N2CCCN(c3ccc(-c4cc(F)ccc4F)cc3)C2=O)sc1S(=O)(=O)NO` [Compound 385], with 100 to 1000 nM; and `Cc1nc(N2CCCN(c3ccc(-c4cc(Cl)c(F)cn4)cc3)C2=O)sc1S(N)(=O)=O` [Compound 38], with 1000 to 5000 nM; and `Cc1nc(N2CCCN(c3ccc(-c4cccc5c4cc(C)n5C)cc3)C2=O)sc1S(N)(=O)=O` [Compound 250], with below 100 nM. On the same count and under the same terms, next, `Cc1nc(N2CC3(COC3)CN(c3ccc(-c4cc(F)cc5nsnc45)cc3)C2=O)sc1S(N)(=O)=O` [Compound 340]: below 100 nM; `Cc1nc(N2CCCCN(c3ccc(-c4cccc5ncsc45)cc3)C2=O)sc1[S@](C)(=N)=O` (single isomer, unassigned) [Compound 430]: below 100 nM. On the same count and under the same terms, then `Cc1nc(N2CC3(CCCC3)CN(c3ccc(-c4cccc5ncsc45)cc3)C2=O)sc1S(N)(=O)=O` [Compound 337], with below 100 nM; and `COc1c(F)cc(F)cc1-c1ccc(N2C[C@H](C(C)(C)O)CN(c3nc(C)c(S(N)(=O)=O)s3)C2=O)cc1` (single isomer, unassigned) [Compound 347], with 100 to 1000 nM. The molecule `Cc1nc(N2CCCN(c3ccc(-c4cncc5ncsc45)cc3)C2=O)sc1S(N)(=O)=O` [Compound 269] gave an EC50 of 100 to 1000 nM. On the same count and under the same terms, next, `Cc1nc(N2CCCN(c3ccc(-c4cc(F)cc5c4ccn5C(F)F)cc3)C2=O)sc1S(N)(=O)=O` [Compound 299]: below 100 nM; `Cc1nc(N2CCCN(c3ccc(-c4cccc(-c5cscn5)c4)cc3)C2=O)sc1S(N)(=O)=O` [Compound 229]: below 100 nM.

Consider `Cc1nc(N2CCCN(c3ccc(-c4cc(C(F)(F)F)cc5nsnc45)cc3)C2=O)sc1S(N)(=O)=O` [Compound 244], for which the EC50 was below 100 nM. As for `Cc1nc(N2CCCN(c3ccc(-c4nccc5ncsc45)cc3)C2=O)sc1S(N)(=O)=O` [Compound 260], the EC50 was below 100 nM. Still for that read-out and setting: then `Cc1nc(N2CCCN(c3ccc(-c4cc(F)ccc4F)cc3)C2=O)sc1S(=O)(=O)NC[C@H](C)CO` [Compound 396], with below 100 nM. On the same count and under the same terms, then `Cc1nc(N2CCCN(c3ccc(-c4cc(C(F)F)ccc4F)cc3)C2=O)sc1S(N)(=O)=O` [Compound 206], with below 100 nM. On the same count and under the same terms, next, `Cc1nc(N2CCCN(c3ccc(-c4cc(F)ccc4F)cc3)C2=O)sc1S(=O)(=O)NC[C@@H](C)CO` [Compound 395]: below 100 nM; `Cc1nc(N2C[C@H](F)CN(c3ccc(-c4cc(F)ccc4F)cc3)C2=O)sc1S(N)(=O)=O` (single isomer, unassigned) [Compound 364]: below 100 nM; `Cc1nc(N2CCCN(c3ccc(-c4cc(Cl)cc(F)c4F)cc3)C2=O)sc1S(N)(=O)=O` [Compound 214]: below 100 nM. Regarding `C#Cc1nc(N2CCCN(c3ccc(-c4cc(F)ccc4F)cc3)C2=O)sc1S(N)(=O)=O` [Compound 439], the EC50 is below 100 nM.

`Cc1nc(N2CCCN(c3ccc(-c4cc(Cl)c(Cl)cn4)cc3)C2=O)sc1S(N)(=O)=O` [Compound 234] displayed an EC50 below 100 nM. The same measure, in the same setting: next, `COc1c(F)cc(F)cc1-c1ccc(N2CC(F)(F)CN(c3nc(C)c(S(N)(=O)=O)s3)C2=O)cc1` [Compound 375]: below 100 nM. In the case of `Cc1nc(N2CCCN(c3ccc(-c4ncccc4F)cc3)C2=O)sc1S(=O)(=O)NC1CC1` [Compound 409], the EC50 is below 100 nM. Consider `Cc1nc(N2CCCN(c3ccc(-c4cccc5c4C(F)(F)CCO5)cc3)C2=O)sc1S(N)(=O)=O` [Compound 266], for which the EC50 is 100 to 1000 nM.

In turn, `Cc1nc(N2CCCN(c3ccc(-c4cc(C(C)(F)F)cc5c4OCO5)cc3)C2=O)sc1S(N)(=O)=O` [Compound 273] showed an EC50 of 100 to 1000 nM. Still for that read-out and setting: next, `Cc1nc(N2CCCN(c3ccc(-c4cc(F)ccc4F)cc3)C2=O)sc1S(=O)(=O)NCCCF` [Compound 391]: below 100 nM; `Cc1nc(N2CCCN(c3ccc(-c4cc(F)cc(C(F)F)c4)cc3)C2=O)sc1S(N)(=O)=O` [Compound 222]: below 100 nM.

In turn, `Cc1nc(N2CCCN(c3ccc(-c4cccc5c4OCCC5(F)F)cc3)C2=O)sc1S(N)(=O)=O` [Compound 267] gave an EC50 of 100 to 1000 nM.

In turn, `COc1c(F)cc(F)cc1-c1ccc(N2CCCN(c3nc(C)c(S(=O)(=O)NCCCCCCCCCCO)s3)C2=O)cc1` [Compound 422] gave an EC50 below 100 nM.

`Cc1nc(N2CCCN(c3ccc(-c4cccc5c4OCCO5)cc3)C2=O)sc1S(N)(=O)=O` [Compound 249] came in with an EC50 below 100 nM.

Molecule `Cc1nc(N2C[C@@H](C)CN(c3ccc(-c4ccccc4F)cc3)C2=O)sc1S(N)(=O)=O` [Compound 317] returned an EC50 below 100 nM. The same measure, in the same setting: then `Cc1nc(N2CCCN(c3ccc(-c4ccccc4F)cc3)C2=O)sc1[S@](C)(=N)=O` (single isomer, unassigned) [Compound 143], with below 100 nM.

The test is the same for the next values; noted with them: Vero cells, 160 TCID50 HSV-2 G strain, 5 days, cell viability.
In turn, `Cc1nc(N2C[C@@H](C#N)CN(c3ccc(-c4cc(F)ccc4F)cc3)C2=O)sc1S(N)(=O)=O` (single isomer, unassigned) [Compound 377] returned an EC50 below 100 nM. Same read-out and setting: next, `Cc1nc(N2CCCN(c3ccc(-c4cccc5ccnn45)cc3)C2=O)sc1S(N)(=O)=O` [Compound 64]: 100 to 1000 nM.
